For 35 molecules, IC50 results are on record in US20220073536A1 (Rigel Pharmaceuticals, Inc., priority 2003, published 2022).

In experiment [1] the test system is cultured human mast cells (CHMC). Description: CHMC low cell density IgE activation: tryptase assay. In kind it is cell-based. The following applies: low cell density CHMC, IgE activation. The procedure, abridged:
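Anti-IgE-driven degranulation of cultured human mast cells at low density, 1000–1500 cells/well, was induced over 30 min at 37 °C. It was scored by supernatant tryptase activity on a fluorogenic substrate.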

The test system is the same in experiment [2]. Briefly: CHMC low cell density ionomycin activation: tryptase assay. In kind it is cell-based. Particulars: low cell density CHMC, 3 pt, read-out: LD Tryptase, CHMC, Iono, 3 pt.
Where [3] appears, read: Homo sapiens, Mast cell, tryptase release, 3 pt, read-out: LD Tryptase, CHMC, IgE, 3 pt.
The mark [4] stands for this setting: Homo sapiens, Mast cell, tryptase release.
The mark [5] stands for this setting: tryptase release, 3 pt, read-out: LD Tryptase, CHMC, IgE, 3 pt.
The mark [6] stands for this setting: tryptase release, 8 pt, read-out: LD Tryptase, CHMC, IgE, 8 pt.
[7] abbreviates: Homo sapiens, Mast cell, tryptase release, 8 pt, read-out: LD Tryptase, CHMC, IgE, 8 pt.
Where [8] appears, read: Homo sapiens, Mast cell, tryptase, 3 pt, read-out: LD Tryptase, CHMC, IgE, 3 pt.
[9] abbreviates: Homo sapiens, Mast cell, tryptase.
The mark [10] stands for this setting: tryptase, 3 pt, read-out: LD Tryptase, CHMC, IgE, 3 pt.

Turning to `CN1CCOc2cc(Nc3nc(Nc4cccc(-c5cnco5)c4)ncc3F)ccc21` [Compound 237], the IC50 in experiment [1] (setting [3]) was below 10 µM; in experiment [2] (setting [4]) it was above 10 µM.
On to `CC1(C)COc2ccc(Nc3nc(Nc4ccc(-c5ncco5)cc4)ncc3F)cc2N1` [Compound 238, N4-(3,4-Dihydro-3,3-dimethyl-2H,4H-benz[1,4]oxazin-6-yl)-5-fluoro-N2-[4-(oxazol-2-yl)phenyl]-2,4-pyrimidinediamine], for which the IC50 in experiment [1] (setting [5]) was below 10 µM; in experiment [1] (setting [6]), below 10 µM; in experiment [2] (tryptase release), above 10 µM.
Take `O=C1COc2ccc(Nc3nc(Nc4ccc(-c5ncco5)cc4)ncc3F)cc2N1` [Compound 239]: the IC50 is below 10 µM in experiment [1] (setting [3]), below 10 µM in experiment [1] (setting [7]) and above 10 µM in experiment [2] (setting [4]).
`C[C@@H]1Oc2ccc(Nc3nc(Nc4ccc(-c5ncco5)cc4)ncc3F)cc2NC1=O` [Compound 240]: the values for the IC50 in experiment [1] (setting [3]), in experiment [1] (setting [7]) and in experiment [2] (setting [4]) were below 10 µM, below 10 µM and above 10 µM, respectively.
Turning to `O=C1COc2cc(Nc3nc(Nc4ccc(-c5ncco5)cc4)ncc3F)ccc2N1` [Compound 241], the IC50 in experiment [1] (setting [3]) and in experiment [2] (setting [4]) was above 10 µM throughout.
`O=C1Nc2cc(Nc3nc(Nc4ccc(-c5ncco5)cc4)ncc3F)ccc2OC1CCO` (stereo not shown) [Compound 242]: the IC50 in experiment [1] (setting [3]) was below 10 µM; in experiment [1] (setting [7]), below 10 µM; in experiment [2] (setting [4]), above 10 µM.
As for `CN1CCOc2ccc(Nc3nc(Nc4ccc(-c5ncco5)cc4)ncc3F)cc21` [Compound 243, N4-(2,3-Dihydro-4-methyl-2H-benz[1,4]oxazin-6-yl)-5-fluoro-N2-[4-(oxazol-2-yl)phenyl]-2,4-pyrimidinediamine], the IC50 is below 10 µM in experiment [1] (setting [5]), below 10 µM in experiment [1] (setting [6]) and above 10 µM in experiment [2] (tryptase release).
As for `CN1C(=O)COc2cc(Nc3nc(Nc4ccc(-c5ncco5)cc4)ncc3F)ccc21` [Compound 244], the IC50 in experiment [1] (setting [3]) and in experiment [2] (setting [4]) was above 10 µM in each case.
Consider `CN1C(=O)COc2ccc(Nc3nc(Nc4ccc(-c5ncco5)cc4)ncc3F)cc21` [Compound 245], for which the IC50 in experiment [1] (setting [3]) and in experiment [2] (setting [4]) was above 10 µM each time.
As for `O=C1COc2ccc(Nc3nc(Nc4cccc(-c5cnco5)c4)ncc3F)cc2N1` [Compound 246], the IC50 is below 10 µM in experiment [1] (setting [3]), below 10 µM in experiment [1] (setting [7]) and above 10 µM in experiment [2] (setting [4]).
For the molecule `C[C@@H]1Oc2ccc(Nc3nc(Nc4cccc(-c5cnco5)c4)ncc3F)cc2NC1=O` [Compound 247], the IC50 in experiment [1] (setting [3]) was below 10 µM; in experiment [1] (setting [7]), below 10 µM; in experiment [2] (setting [4]), above 10 µM.
For the molecule `O=C1Nc2ccc(Nc3nc(Nc4cccc(-c5ncco5)c4)ncc3F)cc2OC1CCO` (stereo not shown) [Compound 248], the IC50 was below 10 µM in experiment [1] (setting [3]), below 10 µM in experiment [1] (setting [7]) and above 10 µM in experiment [2] (setting [4]).
With `O=C1Nc2ccc(Nc3nc(Nc4ccc(-c5cnco5)cc4)ncc3F)cc2OC1CCO` (stereo not shown) [Compound 249], the IC50 in experiment [1] (setting [3]) is below 10 µM; in experiment [1] (setting [7]), above 10 µM; in experiment [2] (setting [4]), above 10 µM.
Turning to `C[C@H]1Oc2ccc(Nc3nc(Nc4cccc(-c5cocn5)c4)ncc3F)cc2NC1=O` [Compound 250], the IC50 in experiment [1] (setting [3]), in experiment [1] (setting [7]) and in experiment [2] (setting [4]) was below 10 µM in each case.
Take `C[C@@H]1Oc2ccc(Nc3nc(Nc4cccc(-c5cocn5)c4)ncc3F)cc2NC1=O` [Compound 251]: the results for the IC50 in experiment [1] (setting [3]), in experiment [1] (setting [7]) and in experiment [2] (setting [4]) were below 10 µM, below 10 µM and above 10 µM, respectively.
In the case of `COc1cc(Nc2ncc(F)c(Nc3ccc4c(c3)NCC(CCO)O4)n2)cc(OC)c1` (stereo not shown) [Compound 253, N4-[3,4-Dihydro-2-(2-hydroxyethyl)-2H,4H-benz[1,4]oxazin-6-yl]-N2-(3,5-dimethoxyphenyl)-5-fluoro-2,4-pyrimidinediamine], the IC50 in experiment [1] (setting [5]) was below 10 µM; in experiment [1] (setting [6]) it was below 10 µM; in experiment [2] (tryptase release), above 10 µM.
Consider `CNC(=O)COc1cccc(Nc2ncc(F)c(Nc3ccc4c(c3)NC(=O)CS4)n2)c1` [Compound 254, 5-Fluoro-N2-[3-(N-methylamino)carbonylmethyleneoxyphenyl]-N4-(3-oxo-2H,4H-benzo[1,4]thiazin-6-yl)-2,4-pyrimidinediamine], for which the IC50 in experiment [1] (setting [5]) was below 10 µM; in experiment [1] (setting [6]), below 10 µM; in experiment [2] (tryptase release), above 10 µM.
Regarding `Cc1cc(C)cc(Nc2ncc(F)c(Nc3ccc4c(c3)NCC(CCO)O4)n2)c1` (stereo not shown) [Compound 255, N4-[2,3-Dihydro-2-(2-hydroxyethyl)-2H,4H-benz[1,4]oxazin-6-yl]-N2-(3,5-dimethylphenyl)-5-fluoro-2,4-pyrimidinediamine], the IC50 in experiment [1] (setting [5]) is below 10 µM; in experiment [1] (setting [6]), below 10 µM; in experiment [2] (tryptase release), above 10 µM.
In the case of `COc1cc(Nc2ncc(F)c(Nc3ccc4c(c3)NC(=O)CS4)n2)cc(OC)c1` [Compound 256], the IC50 in experiment [1] (setting [3]) was below 10 µM; in experiment [1] (setting [7]), below 10 µM; in experiment [2] (setting [4]), above 10 µM.
In the case of `COc1ccc(Nc2ncc(F)c(Nc3ccc4c(c3)NC(=O)CS4)n2)cc1Cl` [Compound 257], the IC50 in experiment [1] (setting [3]) is below 10 µM; in experiment [1] (setting [7]) it was below 10 µM; in experiment [2] (setting [4]), above 10 µM.
As to `CNC(=O)COc1cccc(Nc2ncc(F)c(Nc3ccc4c(c3)NCCS4)n2)c1` [Compound 258, N4-(3,4-Dihydro-2H,4H-benzo[1,4]thiazin-6-yl)-5-fluoro-N2-[3-(N-methylamino)carbonylmethyleneoxyphenyl]-2,4-pyrimidinediamine], the IC50 in experiment [1] (setting [5]) was below 10 µM; in experiment [1] (setting [6]), below 10 µM; in experiment [2] (tryptase release), above 10 µM.
In the case of `CNC(=O)COc1cccc(Nc2ncc(F)c(Nc3ccc4c(c3)N(C)C(=O)CS4)n2)c1` [Compound 259, 5-Fluoro-N2-[3-(N-methylamino)carbonylmethyleneoxyphenyl]-N4-(4-methyl-3-oxo-2H-benzo[1,4]thiazin-6-yl)-2,4-pyrimidinediamine], the IC50 is below 10 µM in experiment [1] (setting [5]), below 10 µM in experiment [1] (setting [6]) and above 10 µM in experiment [2] (tryptase release).
Take `COc1cc(Nc2ncc(F)c(Nc3ccc4c(c3)N(C)C(=O)CS4)n2)cc(OC)c1` [Compound 260]: the IC50 was below 10 µM in experiment [1] (setting [3]), below 10 µM in experiment [1] (setting [7]) and above 10 µM in experiment [2] (setting [4]).
As to `NC(=S)c1cccc(Nc2ncc(F)c(Nc3ccc4c(c3)NC(=O)CO4)n2)c1` [Compound 261, N2-(3-Benzothioamide)-5-fluoro-N4-(3-oxo-2H,4H-benz[1,4]oxazin-6-yl)-2,4-pyrimidinediamine], the IC50 in experiment [1] (setting [5]) is below 10 µM; in experiment [2] (tryptase release), above 10 µM.
With `NC(=S)c1cccc(Nc2ncc(F)c(Nc3ccc4c(c3)NC(=O)C(CCO)O4)n2)c1` (stereo not shown) [Compound 262, N2-(3-Benzothioamide)-5-fluoro-N4-[2-(2-hydroxyethyl)-3-oxo-2H,4H-benz[1,4]oxazin-6-yl]-2,4-pyrimidinediamine], the IC50 in experiment [1] (setting [5]) was below 10 µM; in experiment [2] (tryptase release), above 10 µM.
On to `COc1cc(Nc2nc(Nc3ccc4oc(C(=O)O)cc4c3)ncc2F)cc(OC)c1` [Compound 382], for which the IC50 in experiment [1] (setting [8]) and in experiment [2] (setting [9]) was above 10 µM throughout.
`CNC(=O)COc1cccc(Nc2ncc(F)c(N(C)c3ccc4c(c3)OCCO4)n2)c1` [Compound 385, N4-(3,4-Ethylenedioxyphenyl)-5-fluoro-N4-methyl-N2-[3-(N-methylamino)carbonylmethyleneoxyphenyl]-2,4-pyrimidinediamine]: the IC50 in experiment [1] (setting [10]) is below 10 µM; in experiment [1] (tryptase, 8 pt, read-out: LD Tryptase, CHMC, IgE, 8 pt) it was below 10 µM; in experiment [2] (tryptase) it was above 10 µM.
With `COc1cc(Nc2ncc(F)c(N(C)c3ccc4c(c3)OCCO4)n2)cc(OC)c1` [Compound 386], the IC50 was below 10 µM in experiment [1] (setting [8]); below 10 µM in experiment [1] (Homo sapiens, Mast cell, tryptase, 8 pt, read-out: LD Tryptase, CHMC, IgE, 8 pt); above 10 µM in experiment [2] (setting [9]).
With `Cc1cc(C)cc(Nc2ncc(F)c(N(C)c3ccc4c(c3)OCCO4)n2)c1` [Compound 387], the IC50 in experiment [1] (setting [8]) is below 10 µM; in experiment [2] (setting [9]), above 10 µM.
In the case of `COc1cc(Nc2ncc(F)c(N(C)c3ccc4c(c3)NC(=O)C(C)(C)O4)n2)cc(OC)c1` [Compound 388], the IC50 in experiment [1] (setting [8]) and in experiment [2] (setting [9]) was above 10 µM in each case.
Take `COc1cc(Nc2nc(Nc3cccc4cc(C(=O)NC(C)(C)CO)[nH]c34)ncc2F)cc(OC)c1` [Compound 389, N4-(3,5-Dimethoxyphenyl)-N2-[2-(N-1,1-dimethyl-2-hydroxyethylamino)carbonylindol-7-yl]-5-fluoro-2,4-pyrimidinediamine]: the IC50 is below 10 µM in experiment [1] (setting [10]) and above 10 µM in experiment [2] (tryptase).
Consider `CN(c1ccc2c(c1)OCCO2)c1nc(Cl)ncc1F` [Compound 390], for which the IC50 in experiment [1] (setting [8]) and in experiment [2] (setting [9]) was above 10 µM in each case.
Turning to `Cc1cc(C)cc(Nc2ncc(F)c(N(C)c3ccc4c(c3)N(C)C(=O)C(C)(C)O4)n2)c1` [Compound 391], the IC50 in experiment [1] (setting [8]) and in experiment [2] (setting [9]) was below 10 µM each time.
`COc1ccc(Nc2ncc(F)c(N(C)c3ccc4c(c3)N(C)C(=O)C(C)(C)O4)n2)cc1Cl` [Compound 392]: the IC50 in experiment [1] (setting [8]) and in experiment [2] (setting [9]) was below 10 µM in each case.
Take `COc1cc(Nc2ncc(F)c(N(C)c3ccc4c(c3)N(C)C(=O)C(C)(C)O4)n2)cc(OC)c1` [Compound 393]: the IC50 in experiment [1] (setting [8]) and in experiment [2] (setting [9]) was below 10 µM in each case.
